Laboratory results reported in patent US4820695A, “C-20-dihydro-deoxy-(cyclic amino)-derivatives of macrolide antibiotics” (priority 1987, dated 1989).
Converted amounts (≈) assume the structure as drawn. Read-outs that look alike come from different tables or passages of the source.

Experiments:
[1] = system: Escherichia coli EC14; assay: MIC, standard agar-dilution assay (Table IX); format: cell-based; conditions: read-out: MIC
[2] = system: Streptococcus Group D X66; assay: MIC, standard agar-dilution assay (Table IX); format: cell-based; conditions: read-out: MIC
[3] = system: Staphylococcus epidermidis 222; assay: MIC, standard agar-dilution assay (Table IX); format: cell-based; conditions: read-out: MIC
[4] = system: Staphylococcus aureus V41; assay: MIC, standard agar-dilution assay (Table IX); format: cell-based; conditions: Staphylococcus aureus V41, Penicillin-resistant strain, read-out: MIC
[5] = system: Haemophilus influenzae 76; assay: MIC, standard agar-dilution assay (Table IX); format: cell-based; conditions: Haemophilus influenzae 76, Ampicillin-resistant strain, read-out: MIC
[6] = system: Staphylococcus aureus S13E; assay: MIC, standard agar-dilution assay (Table IX); format: cell-based; conditions: Staphylococcus aureus, S13E
[7] = system: Escherichia coli TEM; assay: MIC, standard agar-dilution assay (Table IX); format: cell-based; conditions: read-out: MIC
[8] = system: Klebsiella X26; assay: MIC, standard agar-dilution assay (Table IX); format: cell-based; conditions: read-out: MIC
[9] = system: Streptococcus sp. 19F; assay: MIC, broth-dilution microtiter test (Table X); format: cell-based; conditions: read-out: MIC
Description: (§1) The MIC's in Table X were obtained using conventional broth-dilution microtiter tests.

[10] = system: Mycoplasma gallisepticum 29C; assay: MIC, broth-dilution microtiter test (Table X); format: cell-based; conditions: Mycoplasmoides gallisepticum, read-out: MIC
Description: as §1

[11] = system: Mycoplasma hyorhinis 29E; assay: MIC, broth-dilution microtiter test (Table X); format: cell-based; conditions: read-out: MIC
Description: as §1

[12] = system: Pasteurella multocida 17E; assay: MIC, broth-dilution microtiter test (Table X); format: cell-based; conditions: Bovine isolate, read-out: MIC
Description: as §1

[13] = system: Mycoplasma hyopneumoniae S5972; assay: MIC, broth-dilution microtiter test (Table X); format: cell-based; conditions: Mesomycoplasma hyopneumoniae, read-out: MIC
Description: as §1

[14] = system: Pasteurella hemolytica 22C; assay: MIC, broth-dilution microtiter test (Table X); format: cell-based; conditions: read-out: MIC
Description: as §1

[15] = system: Mycoplasma synoviae 40A; assay: MIC, broth-dilution microtiter test (Table X); format: cell-based; conditions: Mycoplasmopsis synoviae, read-out: MIC
Description: as §1

[16] = system: Pasteurella multocida 60A; assay: MIC, broth-dilution microtiter test (Table X); format: cell-based; conditions: Avian isolate, read-out: MIC
Description: as §1

[17] = system: Staphylococcus aureus; assay: MIC, broth-dilution microtiter test (Table X); format: cell-based; conditions: read-out: MIC
Description: as §1

[18] = system: Streptococcus Group D 2041; assay: MIC, standard agar-dilution assay (Table IX); format: cell-based; conditions: GROUPD2041, read-out: MIC
[19] = system: Staphylococcus aureus X400; assay: MIC, standard agar-dilution assay (Table IX); format: cell-based; conditions: Staphylococcus aureus X400, Methicillin-resistant strain, read-out: MIC
[20] = system: Streptococcus pneumoniae Park I; assay: MIC, standard agar-dilution assay (Table IX); format: cell-based; conditions: Streptococcus pneumoniae Park I; agar-dilution; read-out: MIC
[21] = system: Escherichia coli N10; assay: MIC, standard agar-dilution assay (Table IX); format: cell-based; conditions: read-out: MIC
[22] = Titratable groups in 66% aqueous DMF (Tables XIV-XVI); format: physicochemical
Description: ^c Run in 66% aqueous DMF
^d Run in 66% aqueous DMF

[23] = system: Staphylococcus epidermidis EPI1; assay: MIC, standard agar-dilution assay (Table IX); format: cell-based; conditions: Staphylococcus epidermidis EPI1; agar-dilution; read-out: MIC
[24] = system: Streptococcus pyogenes C203; assay: MIC, standard agar-dilution assay (Table IX); format: cell-based; conditions: read-out: MIC
[25] = system: Staphyloccus aureus X1.1; assay: MIC, standard agar-dilution assay (Table IX); format: cell-based, Staphylococcus aureus; conditions: Staphylococcus aureus, read-out: MIC
[26] = system: Haemophilus influenzae C.L.; assay: MIC, standard agar-dilution assay (Table IX); format: cell-based; conditions: Ampicillin-sensitive strain, read-out: MIC
[27] = system: Pasteurella multocida; assay: Pasteurella infection in one-day-old chicks, subcutaneous administration (Table XII); format: in vivo; conditions: Administered subcutaneously, 30 mg/kg × 2, 1 and 4 hours post-challenge
Description: Many of the C-20 modified derivatives of this invention have also shown in vivo antibacterial activity against infections induced by gram-negative bacteria. Tables XII and XIII summarize the results of tests in which illustrative compounds were evaluated against a Pasteurella infection in one-day-old chicks. The compounds were administered parenterally or orally after challenge of the chicks with Pasteurella multocida (0.1 ml of a 10^-4 dilution of a twenty-hour tryptose broth culture of an avian P. multocida given subcutaneously). In these tests, unless indicated otherwise, all non-medicated infected chicks died within 24 hours of Pasteurella challenge. In the tests summarized in Table XII, the compounds were administered by subcutaneous injection at a dosage of 30 mg/kg, 1 and 4 hours post-challenge of the chicks with P. multocida. In the tests summarized in Table XIII the compounds were administered in medicated drinking water (at a level of 2 g/gal) available from 4 to 20 hours prior to challenge of the chicks with P. multocida and during the 3 -day test period.
^a Administered subcutaneously; 30 mg/kg × 2

[28] = system: Streptococcus pyogenes C203; assay: ED50 in mice experimentally infected with S. pyogenes C203 (Table XI); format: in vivo; conditions: Streptococcus pyogenes, doses given 1 and 4 hours postinfection, read-out: ED50
Description: The C-20 modified derivatives of this invention have shown in vivo antimicrobial activity against experimentally-induced infections in laboratory animals. When two doses of test compound were administered to mice experimentally infected with S. pyogenes C203, the activity observed was measured as an ED50 value [effective dose in mg/kg to protect 50% of the test animals: see Warren Wick, et al., J. Bacteriol. 81, 233-235 (1961)].
^a mg/kg × 2; doses given 1 and 4 hours postinfection

[29] = Titratable groups (first value)

SMILES | MIC [1] | MIC [2] | MIC [3] | MIC [4] | MIC [5] | MIC [6] | MIC [7] | MIC [8] | MIC [9] | MIC [10] | MIC [11] | MIC [12] | MIC [13] | MIC [14] | MIC [15] | MIC [16] | MIC [17] | MIC [18] | MIC [19] | MIC [20] | other results
CCC1OC(=O)CC(O)C(C)C(OC2OC(C)C(O)C(N(C)C)C2O)C(CCN2CCC(O)CC2)CC(C)C(=O)C=CC(C)=CC1COC1OC(C)C(O)C(OC)C1OC (centres unmarked) [Compound D3, 20-DH-DO-20-(4-hydroxypiperidin-1-yl)desmycosin] | > 128 µg/mL | 128 µg/mL (≈ 149 µM) | 4 µg/mL (≈ 4.67 µM) | 8 µg/mL (≈ 9.33 µM) | 64 µg/mL (≈ 74.7 µM) | 8 µg/mL (≈ 9.33 µM) | > 128 µg/mL | 64 µg/mL (≈ 74.7 µM) | 12.5 µg/mL (≈ 14.6 µM) | 25 µg/mL (≈ 29.2 µM) | 50 µg/mL (≈ 58.3 µM) | 50 µg/mL (≈ 58.3 µM) | 6.25 µg/mL (≈ 7.29 µM) | 50 µg/mL (≈ 58.3 µM) | 6.25 µg/mL (≈ 7.29 µM) | 50 µg/mL (≈ 58.3 µM) | 12.5 µg/mL (≈ 14.6 µM) | 32 µg/mL (≈ 37.3 µM) | 16 µg/mL (≈ 18.7 µM) | 8 µg/mL (≈ 9.33 µM) | MIC [21]: > 128 µg/mL; pKa ([22]; Titratable groups): 8.7; pKa [22, 29]: 7.1; MIC [23]: 8 µg/mL (≈ 9.33 µM); MIC [24]: 1 µg/mL (≈ 1.17 µM); MIC [25]: 8 µg/mL (≈ 9.33 µM); MIC [26]: 64 µg/mL (≈ 74.7 µM)
CCC1OC(=O)CC(O)C(C)C(OC2OC(C)C(O)C(N(C)C)C2O)C(CCN2CCCCCCCCCCCC2)CC(C)C(=O)C=CC(C)=CC1COC1OC(C)C(O)C(OC)C1OC (centres unmarked) [Compound D10, 20-DH-DO-20-(azacyclotridecan-1-yl)desmycosin] | 64 µg/mL (≈ 68.1 µM) | 4 µg/mL (≈ 4.26 µM) | 0.12 µg/mL (≈ 0.128 µM) | 0.25 µg/mL (≈ 0.266 µM) | 8 µg/mL (≈ 8.52 µM) | 0.25 µg/mL (≈ 0.266 µM) | 8 µg/mL (≈ 8.52 µM) | 16 µg/mL (≈ 17 µM) | 0.78 µg/mL (≈ 0.83 µM) | 0.097 µg/mL (≈ 0.103 µM) | 12.5 µg/mL (≈ 13.3 µM) | 1.56 µg/mL (≈ 1.66 µM) | 0.78 µg/mL (≈ 0.83 µM) | 1.56 µg/mL (≈ 1.66 µM) | ≤ 0.048 µg/mL | 3.12 µg/mL (≈ 3.32 µM) | 0.39 µg/mL (≈ 0.415 µM) | 4 µg/mL (≈ 4.26 µM) | 0.25 µg/mL (≈ 0.266 µM) | 0.25 µg/mL (≈ 0.266 µM) | Number of Deaths/Number Treated [27]: 10/10; ED50 ([28]; C203, Oral): 68 mg/kg; ED50 ([28]; C203, sc, Subcutaneous): < 10 mg/kg; MIC [21]: 32 µg/mL (≈ 34.1 µM); pKa ([22]; Titratable groups): 9.5; pKa [22, 29]: 8; MIC [23]: 0.25 µg/mL (≈ 0.266 µM); MIC [25]: 0.25 µg/mL (≈ 0.266 µM); MIC [26]: 4 µg/mL (≈ 4.26 µM)
CCC1OC(=O)CC(O)C(C)C(OC2OC(C)C(O)C(N(C)C)C2O)C(CCN2CCC(N3CCCCC3)CC2)CC(C)C(=O)C=CC(C)=CC1COC1OC(C)C(O)C(OC)C1OC (centres unmarked) [Compound D13, 20-DH-DO-20-[(4-piperidino)piperidin-1-yl]desmycosin] | > 128 µg/mL | 2 µg/mL (≈ 2.16 µM) | 0.25 µg/mL (≈ 0.27 µM) | 1 µg/mL (≈ 1.08 µM) | 8 µg/mL (≈ 8.66 µM) | 1 µg/mL (≈ 1.08 µM) | > 128 µg/mL | 16 µg/mL (≈ 17.3 µM) | 6.25 µg/mL (≈ 6.76 µM) | 6.25 µg/mL (≈ 6.76 µM) | 50 µg/mL (≈ 54.1 µM) | 12.5 µg/mL (≈ 13.5 µM) | 3.12 µg/mL (≈ 3.38 µM) | 12.5 µg/mL (≈ 13.5 µM) | 1.56 µg/mL (≈ 1.69 µM) | 12.5 µg/mL (≈ 13.5 µM) | 3.12 µg/mL (≈ 3.38 µM) | 2 µg/mL (≈ 2.16 µM) | 1 µg/mL (≈ 1.08 µM) | 2 µg/mL (≈ 2.16 µM) | MIC [21]: > 128 µg/mL; pKa ([22]; Titratable groups): 9.2; pKa [22, 29]: 6; MIC [23]: 1 µg/mL (≈ 1.08 µM); MIC [24]: 2 µg/mL (≈ 2.16 µM); MIC [25]: 0.5 µg/mL (≈ 0.541 µM); MIC [26]: 16 µg/mL (≈ 17.3 µM)
